Reference: ChEMBL document CHEMBL4715697, “Synthesis and biological activity of benzamide DNA minor groove binders” (2016)

What was measured:
Format in all cases: functional
OVCAR-3 = assay: Growth inhibition of human OVCAR-3 cells assessed as cell growth at 0.1 uM incubated for 48 hrs by sulforhodamine B assay relative to control; conditions: read-out: Activity
Hs-578T [1] = assay: Growth inhibition of human Hs-578T cells assessed as cell growth at 0.01 uM incubated for 48 hrs by sulforhodamine B assay relative to control; conditions: read-out: Activity
CAKI-1 = assay: Growth inhibition of human CAKI-1 cells assessed as cell growth at 0.1 uM incubated for 48 hrs by sulforhodamine B assay relative to control; conditions: read-out: Activity
SK-MEL-5 [2] = assay: Growth inhibition of human SK-MEL-5 cells incubated for 48 hrs by sulforhodamine B assay
Malme-3M = assay: Growth inhibition of human Malme-3M cells assessed as cell growth at 0.01 uM incubated for 48 hrs by sulforhodamine B assay relative to control; conditions: read-out: Activity
SK-MEL-5 [3] = assay: Growth inhibition of human SK-MEL-5 cells assessed as cell growth at 0.1 uM incubated for 48 hrs by sulforhodamine B assay relative to control; conditions: read-out: Activity
Hs-578T [4] = assay: Growth inhibition of human Hs-578T cells assessed as cell growth at 1 uM incubated for 48 hrs by sulforhodamine B assay relative to control; conditions: read-out: Activity
SK-OV-3 = assay: Growth inhibition of human SK-OV-3 cells assessed as cell growth at 1 uM incubated for 48 hrs by sulforhodamine B assay relative to control; conditions: read-out: Activity
SN12C = assay: Growth inhibition of human SN12C cells assessed as cell growth at 0.1 uM incubated for 48 hrs by sulforhodamine B assay relative to control; conditions: read-out: Activity
M14 = assay: Growth inhibition of human M14 cells assessed as cell growth at 0.01 uM incubated for 48 hrs by sulforhodamine B assay relative to control; conditions: read-out: Activity
U-251 [5] = assay: Growth inhibition of human U-251 cells assessed as cell growth at 0.01 uM incubated for 48 hrs by sulforhodamine B assay relative to control; conditions: read-out: Activity
HL-60(TB) = assay: Growth inhibition of human HL-60(TB) cells assessed as cell growth at 100 uM incubated for 48 hrs by sulforhodamine B assay relative to control; conditions: read-out: Activity
MDA-MB-468 = assay: Growth inhibition of human MDA-MB-468 cells incubated for 48 hrs by sulforhodamine B assay
NCI-H23 = assay: Growth inhibition of human NCI-H23 cells incubated for 48 hrs by sulforhodamine B assay
U-251 [6] = assay: Growth inhibition of human U-251 cells incubated for 48 hrs by sulforhodamine B assay
SK-MEL-28 = assay: Growth inhibition of human SK-MEL-28 cells assessed as cell growth at 0.1 uM incubated for 48 hrs by sulforhodamine B assay relative to control; conditions: read-out: Activity
SNB-19 = assay: Growth inhibition of human SNB-19 cells assessed as cell growth at 0.01 uM incubated for 48 hrs by sulforhodamine B assay relative to control; conditions: read-out: Activity
SNB-75 [7] = assay: Growth inhibition of human SNB-75 cells assessed as cell growth at 0.01 uM incubated for 48 hrs by sulforhodamine B assay relative to control; conditions: read-out: Activity
DU-145 = assay: Growth inhibition of human DU-145 cells assessed as cell growth at 100 uM incubated for 48 hrs by sulforhodamine B assay relative to control; conditions: read-out: Activity
U-251 [8] = assay: Growth inhibition of human U-251 cells assessed as cell growth at 100 uM incubated for 48 hrs by sulforhodamine B assay relative to control; conditions: read-out: Activity
SNB-75 [9] = assay: Growth inhibition of human SNB-75 cells assessed as cell growth at 100 uM incubated for 48 hrs by sulforhodamine B assay relative to control; conditions: read-out: Activity
T47D = assay: Growth inhibition of human T47D cells assessed as cell growth at 0.1 uM incubated for 48 hrs by sulforhodamine B assay relative to control; conditions: read-out: Activity
SF-539 = assay: Growth inhibition of human SF-539 cells assessed as cell growth at 0.01 uM incubated for 48 hrs by sulforhodamine B assay relative to control; conditions: read-out: Activity
HCT-15 = assay: Growth inhibition of human HCT-15 cells assessed as cell growth at 0.01 uM incubated for 48 hrs by sulforhodamine B assay relative to control; conditions: read-out: Activity
ACHN = assay: Growth inhibition of human ACHN cells assessed as cell growth at 100 uM incubated for 48 hrs by sulforhodamine B assay relative to control; conditions: read-out: Activity
RPMI-8226 = assay: Growth inhibition of human RPMI-8226 cells assessed as cell growth at 100 uM incubated for 48 hrs by sulforhodamine B assay relative to control; conditions: read-out: Activity
COLO 205 = assay: Growth inhibition of human COLO 205 cells assessed as cell growth at 100 uM incubated for 48 hrs by sulforhodamine B assay relative to control; conditions: read-out: Activity
NCI/ADR-RES = assay: Growth inhibition of human NCI/ADR-RES cells incubated for 48 hrs by sulforhodamine B assay
MCF7 = assay: Growth inhibition of human MCF7 cells assessed as cell growth at 1 uM incubated for 48 hrs by sulforhodamine B assay relative to control; conditions: read-out: Activity
PC-3 = assay: Growth inhibition of human PC-3 cells assessed as cell growth at 0.1 uM incubated for 48 hrs by sulforhodamine B assay relative to control; conditions: read-out: Activity
NCI-H522 = assay: Growth inhibition of human NCI-H522 cells assessed as cell growth at 1 uM incubated for 48 hrs by sulforhodamine B assay relative to control; conditions: read-out: Activity
SW-620 = assay: Growth inhibition of human SW-620 cells incubated for 48 hrs by sulforhodamine B assay
HOP-62 = assay: Growth inhibition of human HOP-62 cells incubated for 48 hrs by sulforhodamine B assay
SK-MEL-5 [10] = assay: Growth inhibition of human SK-MEL-5 cells assessed as cell growth at 100 uM incubated for 48 hrs by sulforhodamine B assay relative to control; conditions: read-out: Activity
[11] = read-out: LC50 (the source's name)
[12] = read-out: pLC50 (the source's name) (converted)

CC(=O)Nc1cc(CCl)cc(NC(=O)c2ccc(C(=O)Nc3cccc(NC(=O)CCCN(C)C)c3)cc2)c1
growth at 0.1 µM (OVCAR-3): 108% | growth at 0.01 µM (Hs-578T [1]): 115% | growth at 0.1 µM (CAKI-1): 98% | GI50 (SK-MEL-5 [2]; read-out: GI50): > 100 µM | LC50 (SK-MEL-5 [2]; read-out: LC50): > 100 µM | TGI (SK-MEL-5 [2]; read-out: TGI): > 100 µM | GI50 (SK-MEL-5 [2]; read-out: pGI50 (converted)): > 100 µM | LC50 (SK-MEL-5 [2]; read-out: pLC50 (converted)): > 100 µM | TGI (SK-MEL-5 [2]; read-out: pTGI): > 100 µM | growth at 0.01 µM (Malme-3M): 99% | growth at 0.1 µM (SK-MEL-5 [3]): 92% | growth at 1 µM (Hs-578T [4]): 109% | growth at 1 µM (SK-OV-3): 106% | growth at 0.1 µM (SN12C): 104% | growth at 0.01 µM (M14): 108% | growth at 0.01 µM (U-251 [5]): 98% | growth at 100 µM (HL-60(TB)): 90% | GI50 (MDA-MB-468; read-out: GI50): > 100 µM | CC50 (MDA-MB-468; [11]): > 100 µM | TGI (MDA-MB-468; read-out: TGI): > 100 µM | GI50 (MDA-MB-468; read-out: pGI50 (converted)): > 100 µM | CC50 (MDA-MB-468; [12]): > 100 µM | TGI (MDA-MB-468; read-out: pTGI): > 100 µM | GI50 (NCI-H23; read-out: GI50): > 100 µM | CC50 (NCI-H23; [11]): > 100 µM | TGI (NCI-H23; read-out: TGI): > 100 µM | GI50 (NCI-H23; read-out: pGI50 (converted)): > 100 µM | CC50 (NCI-H23; [12]): > 100 µM | TGI (NCI-H23; read-out: pTGI): > 100 µM | GI50 (U-251 [6]; read-out: GI50): > 100 µM | CC50 (U-251 [6]; [11]): > 100 µM | TGI (U-251 [6]; read-out: TGI): > 100 µM | GI50 (U-251 [6]; read-out: pGI50 (converted)): > 100 µM | CC50 (U-251 [6]; [12]): > 100 µM | TGI (U-251 [6]; read-out: pTGI): > 100 µM | growth at 0.1 µM (SK-MEL-28): 91% | growth at 0.01 µM (SNB-19): 106% | growth at 0.01 µM (SNB-75 [7]): 82% | growth at 100 µM (DU-145): 94% | growth at 100 µM (U-251 [8]): 95% | growth at 100 µM (SNB-75 [9]): 97% | growth at 0.1 µM (T47D): 103% | growth at 0.01 µM (SF-539): 98% | growth at 0.01 µM (HCT-15): 94% | growth at 100 µM (ACHN): 104% | growth at 100 µM (RPMI-8226): 107% | growth at 100 µM (COLO 205): 100% | GI50 (NCI/ADR-RES; read-out: GI50): > 100 µM | CC50 (NCI/ADR-RES; [11]): > 100 µM | TGI (NCI/ADR-RES; read-out: TGI): > 100 µM | GI50 (NCI/ADR-RES; read-out: pGI50 (converted)): > 100 µM | CC50 (NCI/ADR-RES; [12]): > 100 µM | TGI (NCI/ADR-RES; read-out: pTGI): > 100 µM | growth at 1 µM (MCF7): 81% | growth at 0.1 µM (PC-3): 103% | growth at 1 µM (NCI-H522): 89% | GI50 (SW-620; read-out: GI50): > 100 µM | LC50 (SW-620; read-out: LC50): > 100 µM | TGI (SW-620; read-out: TGI): > 100 µM | GI50 (SW-620; read-out: pGI50 (converted)): > 100 µM | LC50 (SW-620; read-out: pLC50 (converted)): > 100 µM | TGI (SW-620; read-out: pTGI): > 100 µM | GI50 (HOP-62; read-out: GI50): > 100 µM | CC50 (HOP-62; [11]): > 100 µM | TGI (HOP-62; read-out: TGI): > 100 µM | GI50 (HOP-62; read-out: pGI50 (converted)): > 100 µM | CC50 (HOP-62; [12]): > 100 µM | TGI (HOP-62; read-out: pTGI): > 100 µM | growth at 100 µM (SK-MEL-5 [10]): 75%
